Measurements as given in patent US20240050735A1, “SYSTEMS AND METHODS FOR TREATING AND INHIBITING WOUND INFECTIONS” (priority 2020, published 2024).
Several values for one entry are separate records, joined by “and”; a condition that tells them apart may be missing. Identical values can stand only once. Counter-ions that a name gives are not always drawn. Like-named read-outs stand apart in the source and are kept apart here.

Tests used:
S. aureus biofilms = conditions: cited from earlier work
planktonic MRSA = assay: Minimum inhibitory concentration (MIC) to planktonic MRSA; format: cell-based, Methicillin-resistant S. aureus (MRSA) USA300; conditions: Staphylococcus aureus; planktonic MRSA cells, 24 hours, OD600
Method: Methicillin-resistant S. aureus (MRSA) USA300 strain was used in this study. The planktonic bacteria were cultured in LB medium. Vancomycin hydrochloride (Apexbio Technology LLC, Houston, Tex., USA) and daptomycin (Combi-Blocks, San Diago Calif., USA) were used to treat MRSA biofilm. The minimum inhibitory concentration (MIC) of vancomycin hydrochloride to planktonic MRSA cells was determined as 1.2 μg mL^−1 (see FIG. 17B), which was in consistent with the results reported previously.
MRSA bacteria was cultured in LB media in a 37° C. water shaking bath overnight to reach the concentration of 1×10^8 CFU mL^−1. Then, they were diluted to 10^5 CFU mL^−1 in 96-well plates by adding different concentrations of VAN solutions. After incubation for 24 hours without shaking, MIC of VAN to inhibit MRSA growth was measured by a Biotek Synergy H1 hybrid multi-mode microplate reader (BioTek, Winooski, Vt., USA) at OD600. To evaluate the killing time of VAN to bacteria in stationary phase (1×10^8 CFU mL^−1), VAN powder was added to bacteria solution to obtain concentration of 1 mg mL^−1, 3 mg mL^−1, 5 mg mL^−1, and 10 mg mL^−1, respectively, while remaining MRSA concentration of 1×10^8 CFU mL^−1. After incubation in a 37° C. water bath for 1 day, 2 days, 3 days and 4 days, the CFU of MRSA cells was tested by the standard plate spread counting assay, respectively. […]

[1] = conventional transdermal iontophoresis 0.31 mA cm^−2; cited from earlier work
[2] = format: in vitro ADME; conditions: for permeation coefficient (Pc): 1 mg mL^−1 VAN; for accumulated concentration in wound tissue: 1 mg mL^−1 VAN loaded
Method: Investigations were also performed to determine the iontophoretic antibiotic delivery efficiency of the HIC-based biofilm treatment system 100 using high current intensities. These investigations included an ex vivo antibiotic delivery study using the same MRSA biofilm-infected porcine skin wound model as in the previous section. Vancomycin (VAN) was used here as a model drug, since it is the FDA-approved antibiotic and is the clinical gold standard for combating S. aureus infections.
First the VAN delivery efficiency was tested at different current intensities (from 0 mA cm^−2 (passive diffusion) to 75 mA cm^−2) applied by the HIC-based biofilm treatment system 100 for 1 hour. The drug/buffer chamber 114 of the working device 104 was loaded with 1 mg mL^−1 VAN in this study. The anode side was used as the working device 104 because VAN required anodal iontophoresis. The accumulated concentration of VAN in biofilm infected skin wound was measured immediately after iontophoresis using high performance liquid chromatography (HPLC). […] When 75 mA cm^−2 was used, the VAN concentration in wound tissue increased to 4.5±0.52 mg g^−1. The VAN concentration in wound tissue after passive diffusion, 0.5 mA cm^−2, and 19 mA cm^−2 iontophoresis were also measured. However, they could not be distinguished from the background interference of the residual biofilm components, so no quantitative results were obtained (data not shown). Importantly, the VAN concentration delivered by 75 mA cm^−2 iontophoresis for 1 hour exceeded the minimal biofilm eradication concentration (MBEC) of VAN reported for MRSA biofilm, which was 4 mg g^−1. The ability to deliver a lethal antibiotic concentration into biofilm-infected wounds within a short period of time was critical for biofilm treatment as it would minimize the chance for bacteria to develop adaptive tolerance.
The fetal pig skin samples (approximately 30×30 mm) were immersed in 10% (v/v) bleach for 5 minutes after hair removal. Then, skin samples were sterilized in 70% ethanol for 30 minutes. The surface of skin sample was further cleaned by 10% povidone-iodine and 70% isopropanol to prevent contamination. A 6-mm disposable biopsy punch was used to create an excisional wound. Samples were put into sterile 10-cm petri-dishes filled with sterile PBS (6 mL). The wound was then inoculated with 1×10^8 CFU mL^−1 MRSA bacteria solution (20 μL). The bacteria were allowed to grow in a 37° C. Heratherm™ compact microbiological incubator (ThermoFischer Scientific™, Waltham, Mass., USA) for 48 hours to form mature biofilms.
To evaluate the antibiotic delivery efficacy of VAN by high-intensity current, biofilm infected fetal pig skin wound was used. The DAP test setup was same as that of VAN, except no PBS chamber 122 was used. Instead, the inner surface of the skin wound contacted directly to the hydrogel 120 of the counter device 106. To evaluate the effect of electrical current intensity on the drug delivery efficacy, different current intensities from 0 to 75 mA cm^−2 were applied. To evaluate the effect of loading concentration of antibiotics, different concentrations of VAN and DAP from 1 mg mL^−1 to 10 mg mL^−1 were used. Since VAN is […] and DAP is negatively charged under physiological environment, anode HIC-based device was placed facing biofilm for VAN iontophoresis, and cathode HIC-based device was placed facing biofilm for DAP iontophoresis. Samples were collected immediately after different treatments. The concentrations of antibiotics delivered into skin wound samples were measured by high-performance liquid chromatography (HPLC). The permeation coefficient (Pc, cm s^−1) was then calculated (Pc=J/C, where J is antibiotic delivery flux in tissue samples (μg (cm^2s)^−1, C is the loading concentration of antibiotic solution (μg m L^−1)). […]

SMILES: CN[C@H](CC(C)C)C(=O)N[C@H]1C(=O)N[C@@H](CC(N)=O)C(=O)N[C@H]2C(=O)N[C@H]3C(=O)N[C@H](C(=O)N[C@H](C(=O)O)c4cc(O)cc(O)c4-c4cc3ccc4O)[C@H](O)c3ccc(c(Cl)c3)Oc3cc2cc(c3O[C@@H]2O[C@H](CO)[C@@H](O)[C@H](O)[C@H]2O[C@H]2C[C@](C)(N)[C@H](O)[C@H](C)O2)Oc2ccc(cc2Cl)[C@H]1O [VAN, Vancomycin hydrochloride]
- diffusion coefficient in S. aureus biofilms (S. aureus biofilms; 2012 study): 0.2 μm 2 s^−1
- slower than its diffusion in water (S. aureus biofilms; S. aureus biofilms): more than 1,000 times
- MIC (planktonic MRSA): 1.2 µg/mL
- permeation coefficient (Pc) [1]: 2.21e+11 ×10⁻⁶ cm/s
- conventional Pc lower than Pc by 75 mA cm^−2 HIC iontophoresis ([2]; 0.31 mA cm^−2 conventional vs 75 mA cm^−2 HIC): 980 times
- permeation coefficient (Pc) ([2]; 38 mA cm^−2, 1 hour): 112.0±20.97 ×10^−6 cm s^−1
- accumulated concentration in wound tissue ([2]; 38 mA cm^−2, 1 hour): 2.5 ± 0.32 mg/g
- permeation coefficient (Pc) ([2]; 75 mA cm^−2, 1 hour): 216.5±18.96 ×10^−6 cm s^−1
- accumulated concentration in wound tissue ([2]; 75 mA cm^−2, 1 hour, hydrochloride): 4.5 ± 0.52 mg/g and 4.5 mg/g
- concentration in wound tissue ([2]; 75 mA cm^−2, 1 hour, 5 mg mL^−1 VAN loaded): more than 16 mg g^−1
- concentration in wound tissue ([2]; 75 mA cm^−2, 1 hour, 10 mg mL^−1 VAN loaded): more than 16 mg g^−1
